Laboratory results reported in PubChem BioAssay (NCI).
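Protocol summary: plate cells (96-well), add compound at 5 concentrations, incubate 48 h, interpolate endpoints linearly. Abbreviation: GI50, concentration required for 50% inhibition of growth. TGI: concentration producing complete growth inhibition.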

Key:
Assay in all cases: DTP human tumour cell line panel, 48 h
786-0 renal = test system: 786-0 renal
A498 renal = test system: A498 renal
A549 NSCLC = test system: A549 NSCLC
ACHN renal = test system: ACHN renal
BT-549 breast = test system: BT-549 breast
CAKI-1 renal = test system: CAKI-1 renal
CCRF-CEM leukemia = test system: CCRF-CEM leukemia
COLO 205 colon = test system: COLO 205 colon
DU-145 prostate = test system: DU-145 prostate
EKVX NSCLC = test system: EKVX NSCLC
HCC-2998 colon = test system: HCC-2998 colon
HCT-116 colon = test system: HCT-116 colon
HCT-15 colon = test system: HCT-15 colon
HL-60(TB) leukemia = test system: HL-60(TB) leukemia
HOP-62 NSCLC = test system: HOP-62 NSCLC
HOP-92 NSCLC = test system: HOP-92 NSCLC
HS 578T breast = test system: HS 578T breast
HT29 colon = test system: HT29 colon
IGROV1 ovarian = test system: IGROV1 ovarian
K-562 leukemia = test system: K-562 leukemia
KM12 colon = test system: KM12 colon
LOX IMVI melanoma = test system: LOX IMVI melanoma
M14 melanoma = test system: M14 melanoma
MALME-3M melanoma = test system: MALME-3M melanoma
MCF7 breast = test system: MCF7 breast
MDA-MB-231 breast = test system: MDA-MB-231 breast
MDA-MB-435 = test system: MDA-MB-435
MDA-MB-468 breast = test system: MDA-MB-468 breast
MOLT-4 leukemia = test system: MOLT-4 leukemia
NCI-H226 lung = test system: NCI-H226 lung
NCI-H23 lung = test system: NCI-H23 lung
NCI-H460 lung = test system: NCI-H460 lung
NCI-H522 lung = test system: NCI-H522 lung
NCI/ADR-RES ovarian = test system: NCI/ADR-RES ovarian
OVCAR-3 ovarian = test system: OVCAR-3 ovarian
OVCAR-4 ovarian = test system: OVCAR-4 ovarian
OVCAR-5 ovarian = test system: OVCAR-5 ovarian
OVCAR-8 ovarian = test system: OVCAR-8 ovarian
PC-3 prostate = test system: PC-3 prostate
RPMI-8226 leukemia = test system: RPMI-8226 leukemia
RXF 393 renal = test system: RXF 393 renal
SF-268 CNS = test system: SF-268 CNS
SF-295 CNS = test system: SF-295 CNS
SF-539 CNS = test system: SF-539 CNS
SK-MEL-2 melanoma = test system: SK-MEL-2 melanoma
SK-MEL-28 melanoma = test system: SK-MEL-28 melanoma
SK-MEL-5 melanoma = test system: SK-MEL-5 melanoma
SK-OV-3 ovarian = test system: SK-OV-3 ovarian
SN12C renal = test system: SN12C renal
SNB-19 CNS = test system: SNB-19 CNS
SNB-75 CNS = test system: SNB-75 CNS
SR leukemia = test system: SR leukemia
SW-620 colon = test system: SW-620 colon
T-47D breast = test system: T-47D breast
TK-10 renal = test system: TK-10 renal
U251 CNS = test system: U251 CNS
UACC-257 melanoma = test system: UACC-257 melanoma
UACC-62 melanoma = test system: UACC-62 melanoma
UO-31 renal = test system: UO-31 renal

O=C(Cn1c(-c2ccccc2)nc2ccccc21)N=Nc1c(O)[nH]c2ccc(Br)cc12
GI50 (786-0 renal): 17.5 µM
TGI (786-0 renal): 34.7 µM
GI50 (A498 renal): 16 µM
TGI (A498 renal): 31.1 µM
GI50 (A549 NSCLC): 14.7 µM
TGI (A549 NSCLC): 34.8 µM
GI50 (ACHN renal): 15.6 µM
TGI (ACHN renal): 34.1 µM
GI50 (BT-549 breast): 16 µM
TGI (BT-549 breast): 36.9 µM
GI50 (CAKI-1 renal): 11.8 µM
TGI (CAKI-1 renal): 25.7 µM
GI50 (CCRF-CEM leukemia): 34.8 µM
TGI (CCRF-CEM leukemia): > 100 µM
GI50 (COLO 205 colon): 18.9 µM
TGI (COLO 205 colon): 46.2 µM
GI50 (DU-145 prostate): 19.6 µM
TGI (DU-145 prostate): 42.3 µM
GI50 (EKVX NSCLC): 11.3 µM
TGI (EKVX NSCLC): 34.1 µM
GI50 (HCC-2998 colon): 14.8 µM
TGI (HCC-2998 colon): 31.3 µM
GI50 (HCT-116 colon): 18.2 µM
TGI (HCT-116 colon): 45.8 µM
GI50 (HCT-15 colon): 12 µM
TGI (HCT-15 colon): 38.9 µM
GI50 (HL-60(TB) leukemia): 25.5 µM
TGI (HL-60(TB) leukemia): > 100 µM
GI50 (HOP-62 NSCLC): 14.6 µM
TGI (HOP-62 NSCLC): 33 µM
GI50 (HOP-92 NSCLC): 15.4 µM
TGI (HOP-92 NSCLC): 34.2 µM
GI50 (HS 578T breast): 14.9 µM
TGI (HS 578T breast): 47.3 µM
GI50 (HT29 colon): 14.3 µM
TGI (HT29 colon): 30.4 µM
GI50 (IGROV1 ovarian): 12 µM
TGI (IGROV1 ovarian): 29.7 µM
GI50 (K-562 leukemia): 9.48 µM
TGI (K-562 leukemia): > 100 µM
GI50 (KM12 colon): 14.8 µM
TGI (KM12 colon): 52.9 µM
GI50 (LOX IMVI melanoma): 15 µM
TGI (LOX IMVI melanoma): 31.7 µM
GI50 (M14 melanoma): 18.8 µM
TGI (M14 melanoma): 52.3 µM
GI50 (MALME-3M melanoma): 12.3 µM
TGI (MALME-3M melanoma): 27.1 µM
GI50 (MCF7 breast): 5.87 µM
TGI (MCF7 breast): 25.6 µM
GI50 (MDA-MB-231 breast): 12 µM
TGI (MDA-MB-231 breast): 27.9 µM
GI50 (MDA-MB-435): 5.9 µM
TGI (MDA-MB-435): 21.3 µM
GI50 (MDA-MB-468 breast): 2.54 µM
TGI (MDA-MB-468 breast): 9.55 µM
GI50 (MOLT-4 leukemia): 17.6 µM
TGI (MOLT-4 leukemia): > 100 µM
GI50 (NCI-H226 lung): 11.1 µM
TGI (NCI-H226 lung): 28.3 µM
GI50 (NCI-H23 lung): 16.3 µM
TGI (NCI-H23 lung): 36.5 µM
GI50 (NCI-H460 lung): 16.8 µM
TGI (NCI-H460 lung): 35 µM
GI50 (NCI-H522 lung): 7.31 µM
TGI (NCI-H522 lung): 22.4 µM
GI50 (NCI/ADR-RES ovarian): 15.4 µM
TGI (NCI/ADR-RES ovarian): 33.8 µM
GI50 (OVCAR-3 ovarian): 14.3 µM
TGI (OVCAR-3 ovarian): 30.3 µM
GI50 (OVCAR-4 ovarian): 15.9 µM
TGI (OVCAR-4 ovarian): 36.5 µM
GI50 (OVCAR-5 ovarian): 22.9 µM
TGI (OVCAR-5 ovarian): 81.4 µM
GI50 (OVCAR-8 ovarian): 14.4 µM
TGI (OVCAR-8 ovarian): 31.1 µM
GI50 (PC-3 prostate): 15 µM
TGI (PC-3 prostate): 43.2 µM
GI50 (RPMI-8226 leukemia): 35.6 µM
TGI (RPMI-8226 leukemia): > 100 µM
GI50 (RXF 393 renal): 10.3 µM
TGI (RXF 393 renal): 23.9 µM
GI50 (SF-268 CNS): 16.2 µM
TGI (SF-268 CNS): 38.3 µM
GI50 (SF-295 CNS): 12.7 µM
TGI (SF-295 CNS): 28 µM
GI50 (SF-539 CNS): 14.4 µM
TGI (SF-539 CNS): 29.7 µM
GI50 (SK-MEL-2 melanoma): 17 µM
TGI (SK-MEL-2 melanoma): 42.9 µM
GI50 (SK-MEL-28 melanoma): 17.8 µM
TGI (SK-MEL-28 melanoma): 36.7 µM
GI50 (SK-MEL-5 melanoma): 13.9 µM
TGI (SK-MEL-5 melanoma): 30.9 µM
GI50 (SK-OV-3 ovarian): 16.6 µM
TGI (SK-OV-3 ovarian): 38.4 µM
GI50 (SN12C renal): 16.2 µM
TGI (SN12C renal): 41.8 µM
GI50 (SNB-19 CNS): 17.3 µM
TGI (SNB-19 CNS): 40.8 µM
GI50 (SNB-75 CNS): 9.46 µM
TGI (SNB-75 CNS): 23.6 µM
GI50 (SR leukemia): 6.04 µM
TGI (SR leukemia): > 100 µM
GI50 (SW-620 colon): 18.1 µM
TGI (SW-620 colon): 52.9 µM
GI50 (T-47D breast): 11.5 µM
TGI (T-47D breast): 33.8 µM
GI50 (TK-10 renal): 21 µM
TGI (TK-10 renal): 40.3 µM
GI50 (U251 CNS): 16.2 µM
TGI (U251 CNS): 31.7 µM
GI50 (UACC-257 melanoma): 15.2 µM
TGI (UACC-257 melanoma): 31.7 µM
GI50 (UACC-62 melanoma): 12.1 µM
TGI (UACC-62 melanoma): 25.9 µM
GI50 (UO-31 renal): 10 µM
TGI (UO-31 renal): 26.8 µM
